Assay type in all cases: biochemical
One assay concerns the target T1, MMP-1 (Homo sapiens, UniProt P03956).
T1 sequence (P03956 100-469): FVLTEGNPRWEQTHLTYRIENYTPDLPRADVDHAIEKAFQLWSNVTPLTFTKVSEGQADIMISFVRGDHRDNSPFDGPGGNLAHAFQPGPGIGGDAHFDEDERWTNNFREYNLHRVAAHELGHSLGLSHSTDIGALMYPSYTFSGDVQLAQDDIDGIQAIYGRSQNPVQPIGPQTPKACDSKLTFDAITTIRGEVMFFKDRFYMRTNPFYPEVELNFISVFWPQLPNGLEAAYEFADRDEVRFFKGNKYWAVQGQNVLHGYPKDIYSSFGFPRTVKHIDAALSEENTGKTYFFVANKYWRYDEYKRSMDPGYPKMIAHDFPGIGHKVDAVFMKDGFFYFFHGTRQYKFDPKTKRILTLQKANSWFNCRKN
As to the kind of experiment: MMP-1 inhibitory action (Type I collagen Activity Measurement kit, FITC-labeled collagen type I).

In the next assay the target is T2, Recombinant Human MMP-13 (Homo sapiens, UniProt P45452).
T2 construct: purchased R&D systems 511-MM
As to the kind of experiment: MMP-13 inhibitory activity (MMP-13 specific fluorescent substrate with quencher). Put shortly: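 Recombinant human MMP-13 with test compound, reaction started with quenched fluorogenic peptide 7-MCA-Pro-CHA-Gly-NVal-His-Ala-DPA in Tris-HCl buffer, 1 h at 25 °C, stopped with acetic acid. Fluorescence at Ex 325/Em 405 nm; % inhibition versus enzyme-free and inhibitor-free wells, reported as IC50 (μM).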

For the next assay, the target named is T3, aggrecanase-1 (Homo sapiens, UniProt O75173).
T3 sequence (O75173 213-837): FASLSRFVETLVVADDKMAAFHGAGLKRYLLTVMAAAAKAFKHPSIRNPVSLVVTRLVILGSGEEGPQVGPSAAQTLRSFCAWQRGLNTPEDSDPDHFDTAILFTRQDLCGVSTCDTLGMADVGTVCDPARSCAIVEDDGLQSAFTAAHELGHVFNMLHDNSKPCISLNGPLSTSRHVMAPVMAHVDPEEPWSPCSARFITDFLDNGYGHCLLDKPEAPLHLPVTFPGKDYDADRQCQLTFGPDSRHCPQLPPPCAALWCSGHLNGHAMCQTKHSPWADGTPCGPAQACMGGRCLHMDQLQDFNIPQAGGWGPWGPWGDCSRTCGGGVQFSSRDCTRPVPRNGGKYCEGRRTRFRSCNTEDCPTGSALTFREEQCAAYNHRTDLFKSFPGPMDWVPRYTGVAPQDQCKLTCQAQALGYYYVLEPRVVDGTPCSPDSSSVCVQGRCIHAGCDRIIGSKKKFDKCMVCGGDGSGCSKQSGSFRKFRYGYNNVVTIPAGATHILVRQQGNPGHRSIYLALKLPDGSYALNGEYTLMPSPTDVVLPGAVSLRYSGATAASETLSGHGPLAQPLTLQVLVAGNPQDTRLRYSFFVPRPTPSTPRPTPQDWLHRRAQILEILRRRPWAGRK
Nature of the assay: Aggrecanase-1 inhibitory action (Particle Assay, GAG release from aggrecan-containing polyacrylamide particles). In outline: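 Enzyme and compound incubated with aggrecan-containing polyacrylamide particles in Tris-HCl buffer at 37° C for 15 h. Released GAG in supernatant measured with 1,9-dimethylmethylene blue at 595 nm against chondroitin sulfate standard; % inhibition from enzyme-free and inhibitor-free wells, reported as TC50 (μM).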

Setting [1] is: Experimental Example 2, read-out: IC50 MMP1.
Where [2] appears, read: Experimental Example 3, read-out: IC50 MMP13.
[3] abbreviates: Experimental Example 1, read-out: IC50 AG1.
The mark [4] stands for this setting: MMP-1 inhibitory action, FITC-labeled collagen type I, 37° C. for 3 hr, read-out: IC50 MMP1 (Experimental Example 2).
[5] abbreviates: Recombinant Human MMP-13, fluorescent substrate, 25° C. for 1 h, read-out: IC50 MMP13 (Experimental Example 3).
Setting [6] is: aggrecanase-1 inhibitory action, read-out: IC50 AG1 (Experimental Example 1).

Read-outs that look alike come from different tables or passages of the source.

What is called IC50 is the point on the concentration scale where inhibition reaches its midpoint. Take `O=C(O)[C@@]1(NS(=O)(=O)c2ccc(-c3cc(C(F)(F)F)on3)s2)C[C@H]1c1ccc(CCO)cc1` [Example 2-301]: the half-maximal inhibitory concentration (IC50) is at least 1000 nM at MMP-1 (setting [1]), under 100 nM at Recombinant Human MMP-13 (setting [2]) and under 100 nM at aggrecanase-1 (setting [3]).

Take `CC1[C@H](c2ccccc2)[C@]1(NS(=O)(=O)c1ccc(-c2cc(C(N)=O)on2)s1)C(=O)O` (stereo partly drawn) [Example 2-578]: the half-maximal inhibitory concentration (IC50) was at least 1000 nM at MMP-1 (setting [1]), under 100 nM at Recombinant Human MMP-13 (setting [2]) and under 1000 nM on aggrecanase-1 (setting [3]).

As for `COCC1(c2ccccc2)CC1(NS(=O)(=O)c1ccc(-c2ccc(Cl)cc2)s1)C(=O)O` (stereo not drawn) [Example 2-386], the half-maximal inhibitory concentration (IC50) on MMP-1 (setting [1]) is at least 1000 nM; at Recombinant Human MMP-13 (setting [2]) it was under 1000 nM; on aggrecanase-1 (setting [3]), under 1000 nM.

Consider `CC1C(c2ccccc2)C1(NS(=O)(=O)c1ccc(-c2ccc(Cl)cc2)s1)C(=O)O` (stereo not drawn) [Example 2-326], for which the half-inhibitory concentration (IC50) was at least 1000 nM on MMP-1 (setting [1]), under 1000 nM on Recombinant Human MMP-13 (setting [2]) and under 1000 nM at aggrecanase-1 (setting [3]).

Regarding `CC(=O)c1ccc(S(=O)(=O)N[C@@]2(C(=O)O)C(C)[C@@H]2c2ccccc2)s1` (stereo partly drawn) [Example 2-425], the IC50 on MMP-1 (setting [1]) was at least 10000 nM; at Recombinant Human MMP-13 (setting [2]), at least 1000 nM; on aggrecanase-1 (setting [3]), at least 10000 nM.

As for `CC1[C@H](c2ccccc2)[C@]1(NS(=O)(=O)c1cn2cc(Cn3cc(Cl)cn3)nc2s1)C(=O)O` (stereo partly drawn) [Example 2-520], the 50% inhibitory concentration (IC50) at MMP-1 (setting [1]), on Recombinant Human MMP-13 (setting [2]) and on aggrecanase-1 (setting [3]) was at least 1000 nM each time.

Take `CC(C)(C)OC(=O)NCCCC1(c2ccccc2)CC1(NS(=O)(=O)c1ccc(-c2ccc(Cl)cc2)s1)C(=O)O` (stereo not drawn) [Example 2-284]: the values for the 50% inhibitory concentration (IC50) on MMP-1 (setting [1]), at Recombinant Human MMP-13 (setting [2]) and on aggrecanase-1 (setting [3]) were at least 1000 nM, under 100 nM and under 100 nM, respectively.

With `O=C(Nc1cccc(C2CC2(NS(=O)(=O)c2ccc(-c3cc(C(F)(F)F)on3)s2)C(=O)O)c1)N1CCOCC1` (stereo not drawn) [Example 2-250], the IC50 on MMP-1 (setting [4]) was at least 1000 nM; at Recombinant Human MMP-13 (setting [5]), under 100 nM; on aggrecanase-1 (setting [6]), under 1000 nM.

With `O=C(Cc1ccccc1C1CC1(NS(=O)(=O)c1ccc(-c2cc(C(F)(F)F)on2)s1)C(=O)O)N1CCOCC1` (stereo not drawn) [Example 2-243], the results for the 50% inhibitory concentration (IC50) on MMP-1 (setting [4]), on Recombinant Human MMP-13 (setting [5]) and on aggrecanase-1 (setting [6]) were at least 1000 nM, under 100 nM and under 1000 nM, respectively.

`Cc1cnn(-c2ccc(S(=O)(=O)N[C@@]3(C(=O)O)C[C@@H]3c3ccccc3)cn2)c1` [Example 2-481]: the concentration for half-maximal inhibition (IC50) on MMP-1 (setting [1]) was at least 10000 nM; at Recombinant Human MMP-13 (setting [2]) it was under 100 nM; on aggrecanase-1 (setting [3]), at least 1000 nM.

Consider `CC(C)N1CCN(c2ccc(S(=O)(=O)N[C@@]3(C(=O)O)C[C@]3(C)c3ccccc3)s2)CC1` [Example 2-443], for which the IC50 at MMP-1 (setting [1]) is at least 10000 nM; on Recombinant Human MMP-13 (setting [2]), at least 1000 nM; at aggrecanase-1 (setting [3]) it was at least 1000 nM.

`COCc1cc(-c2ccc(S(=O)(=O)N[C@@]3(C(=O)O)C[C@@H]3c3ccccc3)s2)no1` [Example 2-110]: the figures for the half-maximal inhibitory concentration (IC50) on MMP-1 (setting [4]), on Recombinant Human MMP-13 (setting [5]) and on aggrecanase-1 (setting [6]) were at least 1000 nM, under 100 nM and under 1000 nM, respectively.

For the molecule `CC1[C@H](c2ccccc2)[C@]1(NS(=O)(=O)N1CCN(c2ccc(C(F)(F)F)cc2)CC1)C(=O)O` (stereo partly drawn) [Example 2-428], the values for the IC50 on MMP-1 (setting [1]), at Recombinant Human MMP-13 (setting [2]) and on aggrecanase-1 (setting [3]) were at least 1000 nM, under 100 nM and under 1000 nM, respectively.

Turning to `O=C(O)c1cccc(C2CC2(NS(=O)(=O)c2ccc(-c3ccc(Cl)cc3)s2)C(=O)O)c1` (stereo not drawn) [Example 1-113], the 50% inhibitory concentration (IC50) at MMP-1 (setting [4]) was at least 1000 nM; at Recombinant Human MMP-13 (setting [5]) it was under 1000 nM; at aggrecanase-1 (setting [6]) it was under 100 nM.

Take `NC(=O)OCCC1(c2ccccc2)CC1(NS(=O)(=O)c1ccc(-c2ccc(Cl)cc2)s1)C(=O)O` (stereo not drawn) [Example 2-295]: the half-inhibitory concentration (IC50) was at least 1000 nM on MMP-1 (setting [1]), under 100 nM at Recombinant Human MMP-13 (setting [2]) and under 100 nM at aggrecanase-1 (setting [3]).

As to `O=C(O)[C@]1(NS(=O)(=O)c2ccc(-c3noc(C(F)(F)F)n3)s2)C[C@@H]1c1ccccc1` [Example 2-44], the values for the IC50 at MMP-1 (setting [4]), on Recombinant Human MMP-13 (setting [5]) and on aggrecanase-1 (setting [6]) were at least 10000 nM, at least 1000 nM and at least 1000 nM, respectively.

The values above are taken from patent publication US20080261994A1, “CYCLOPROPANE COMPOUNDS AND PHARMACEUTICAL USE THEREOF” (Japan Tobacco Inc., priority 2003, published 2008).
